From patent publication US9040533B2, “Oxime-substituted-quinoxaline-type piperidine compounds as ORL-1 modulators” (priority 2012, dated 2015) come the findings set out here.

In test [1] the target is CYP2D6 (Homo sapiens, UniProt P10635). As to the kind of experiment: biochemical.
Test [2] deals with human opioid receptor-like (ORL-1) (Homo sapiens, UniProt P41146). Nature of the test: ORL-1 receptor [35S]GTPγS functional binding assay. Type of test: biochemical. (Binding of GTPγS marks nucleotide exchange on a G protein.)
Sequence of human opioid receptor-like (ORL-1) (P41146 whole entry): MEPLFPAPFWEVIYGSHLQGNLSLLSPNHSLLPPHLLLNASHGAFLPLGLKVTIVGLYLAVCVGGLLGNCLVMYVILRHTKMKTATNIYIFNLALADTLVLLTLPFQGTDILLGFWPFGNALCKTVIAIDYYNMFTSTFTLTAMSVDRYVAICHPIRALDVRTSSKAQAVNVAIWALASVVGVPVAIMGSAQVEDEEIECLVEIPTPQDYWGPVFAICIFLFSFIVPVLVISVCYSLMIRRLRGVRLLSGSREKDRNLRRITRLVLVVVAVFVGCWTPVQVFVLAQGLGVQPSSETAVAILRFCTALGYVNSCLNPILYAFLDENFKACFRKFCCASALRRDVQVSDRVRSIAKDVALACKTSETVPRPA
The target in test [3] is T1, CYP1A2 (Homo sapiens, UniProt P05177).
T1 sequence (P05177 1-516): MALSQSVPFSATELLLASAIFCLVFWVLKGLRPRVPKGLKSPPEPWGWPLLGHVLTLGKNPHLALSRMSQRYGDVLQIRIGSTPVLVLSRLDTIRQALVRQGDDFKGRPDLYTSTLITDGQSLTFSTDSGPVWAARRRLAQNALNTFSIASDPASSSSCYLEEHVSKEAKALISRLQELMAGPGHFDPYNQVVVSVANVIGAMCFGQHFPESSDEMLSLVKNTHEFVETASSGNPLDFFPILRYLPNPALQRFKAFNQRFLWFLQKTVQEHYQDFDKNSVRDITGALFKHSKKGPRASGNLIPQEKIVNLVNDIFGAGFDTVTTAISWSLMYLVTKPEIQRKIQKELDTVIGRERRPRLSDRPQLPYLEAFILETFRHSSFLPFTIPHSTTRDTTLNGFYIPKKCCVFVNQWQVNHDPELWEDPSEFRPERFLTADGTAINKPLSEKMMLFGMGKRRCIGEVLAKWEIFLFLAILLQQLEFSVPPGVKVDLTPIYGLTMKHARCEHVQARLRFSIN
As to the kind of experiment: biochemical.

Test [4] has as its target CYP2C19 (Homo sapiens, UniProt P33261). As to the kind of experiment: biochemical.
The target of test [5] is CYP2C9 (Homo sapiens, UniProt P11712). Nature of the test: biochemical.
Sequence of CYP2C9 (P11712 whole entry): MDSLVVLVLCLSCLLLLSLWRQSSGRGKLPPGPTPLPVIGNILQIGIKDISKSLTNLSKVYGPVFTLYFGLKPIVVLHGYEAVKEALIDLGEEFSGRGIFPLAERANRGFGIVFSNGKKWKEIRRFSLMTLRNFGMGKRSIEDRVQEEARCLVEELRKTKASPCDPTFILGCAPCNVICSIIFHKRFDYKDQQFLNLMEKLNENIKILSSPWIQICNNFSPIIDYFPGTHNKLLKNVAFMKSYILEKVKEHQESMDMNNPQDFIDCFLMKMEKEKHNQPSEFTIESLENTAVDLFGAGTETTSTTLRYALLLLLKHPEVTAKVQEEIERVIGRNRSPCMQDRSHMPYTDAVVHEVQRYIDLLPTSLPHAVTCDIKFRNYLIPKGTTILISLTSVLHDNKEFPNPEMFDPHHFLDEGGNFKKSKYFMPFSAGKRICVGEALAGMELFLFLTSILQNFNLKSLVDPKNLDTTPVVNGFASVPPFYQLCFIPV
The target of test [6] is CYP3A4 (Homo sapiens, UniProt P08684). As to the kind of experiment: biochemical.
Sequence of CYP3A4 (P08684 whole entry): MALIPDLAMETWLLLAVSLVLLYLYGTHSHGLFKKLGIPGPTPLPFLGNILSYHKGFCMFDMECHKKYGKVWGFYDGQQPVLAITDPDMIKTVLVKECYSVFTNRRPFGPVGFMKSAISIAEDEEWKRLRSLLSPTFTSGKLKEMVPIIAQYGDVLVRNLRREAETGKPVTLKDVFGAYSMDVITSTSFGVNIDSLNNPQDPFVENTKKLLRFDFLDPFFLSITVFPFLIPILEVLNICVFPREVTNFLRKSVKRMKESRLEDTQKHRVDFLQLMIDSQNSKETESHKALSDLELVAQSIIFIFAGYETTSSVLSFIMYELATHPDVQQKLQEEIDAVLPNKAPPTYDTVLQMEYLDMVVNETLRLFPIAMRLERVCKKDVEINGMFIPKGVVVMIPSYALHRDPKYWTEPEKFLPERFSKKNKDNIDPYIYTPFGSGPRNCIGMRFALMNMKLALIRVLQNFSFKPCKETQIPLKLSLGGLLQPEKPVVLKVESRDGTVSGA
For test [7], the target named is human μ-opioid receptors (Homo sapiens, UniProt P35372). As to the kind of experiment: In vitro mu-opioid receptor binding assay ([3H]-diprenorphine displacement). Conditions: read-out: Mu opioid receptor Ki [Average ± Std Deviation].
Sequence of human μ-opioid receptors (P35372 whole entry): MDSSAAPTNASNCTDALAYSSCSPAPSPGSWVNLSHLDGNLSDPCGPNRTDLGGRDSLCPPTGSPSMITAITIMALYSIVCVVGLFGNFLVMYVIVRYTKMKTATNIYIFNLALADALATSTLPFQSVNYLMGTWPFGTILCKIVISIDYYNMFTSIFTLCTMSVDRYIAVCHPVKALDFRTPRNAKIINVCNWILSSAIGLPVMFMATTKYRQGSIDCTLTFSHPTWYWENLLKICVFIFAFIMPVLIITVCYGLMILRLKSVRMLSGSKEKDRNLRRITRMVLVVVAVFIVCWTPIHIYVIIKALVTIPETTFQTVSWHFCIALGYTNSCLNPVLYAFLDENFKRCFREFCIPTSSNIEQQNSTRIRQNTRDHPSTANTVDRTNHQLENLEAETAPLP
Test [8] has as its target human kappa opioid receptor (Homo sapiens, UniProt P41145). As to the kind of experiment: In vitro kappa-opioid receptor binding assay ([3H]-U69,593 displacement).
In test [9] the target is delta opioid receptor (Homo sapiens, UniProt P41143). Nature of the test: In vitro delta-opioid receptor binding assay ([3H]-Naltrindole displacement).
Sequence of delta opioid receptor (P41143 whole entry): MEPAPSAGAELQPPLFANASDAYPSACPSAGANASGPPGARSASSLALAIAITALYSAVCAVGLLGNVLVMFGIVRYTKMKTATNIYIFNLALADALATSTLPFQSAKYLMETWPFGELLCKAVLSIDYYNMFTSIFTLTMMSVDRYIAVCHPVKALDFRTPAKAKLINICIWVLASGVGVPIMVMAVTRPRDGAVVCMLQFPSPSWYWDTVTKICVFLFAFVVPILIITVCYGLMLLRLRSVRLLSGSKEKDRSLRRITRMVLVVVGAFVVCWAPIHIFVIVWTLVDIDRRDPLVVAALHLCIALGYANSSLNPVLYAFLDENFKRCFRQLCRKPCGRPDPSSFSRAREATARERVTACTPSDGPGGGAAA

The structures appear in SMILES notation.

Sequence of CYP2D6 (P10635 whole entry): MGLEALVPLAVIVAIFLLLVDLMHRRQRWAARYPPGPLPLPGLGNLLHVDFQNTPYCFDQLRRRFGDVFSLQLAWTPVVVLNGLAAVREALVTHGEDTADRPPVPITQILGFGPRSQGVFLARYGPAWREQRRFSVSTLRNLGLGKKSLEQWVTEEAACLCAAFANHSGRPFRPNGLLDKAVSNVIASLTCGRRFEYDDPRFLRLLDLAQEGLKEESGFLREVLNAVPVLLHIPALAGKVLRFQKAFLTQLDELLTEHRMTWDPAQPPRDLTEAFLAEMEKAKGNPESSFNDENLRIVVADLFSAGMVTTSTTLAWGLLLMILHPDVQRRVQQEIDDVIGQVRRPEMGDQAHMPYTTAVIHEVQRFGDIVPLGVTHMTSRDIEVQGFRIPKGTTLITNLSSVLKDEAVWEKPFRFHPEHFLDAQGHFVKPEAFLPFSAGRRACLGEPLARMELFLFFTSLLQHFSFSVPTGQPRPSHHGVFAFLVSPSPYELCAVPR
Sequence of CYP2C19 (P33261 whole entry): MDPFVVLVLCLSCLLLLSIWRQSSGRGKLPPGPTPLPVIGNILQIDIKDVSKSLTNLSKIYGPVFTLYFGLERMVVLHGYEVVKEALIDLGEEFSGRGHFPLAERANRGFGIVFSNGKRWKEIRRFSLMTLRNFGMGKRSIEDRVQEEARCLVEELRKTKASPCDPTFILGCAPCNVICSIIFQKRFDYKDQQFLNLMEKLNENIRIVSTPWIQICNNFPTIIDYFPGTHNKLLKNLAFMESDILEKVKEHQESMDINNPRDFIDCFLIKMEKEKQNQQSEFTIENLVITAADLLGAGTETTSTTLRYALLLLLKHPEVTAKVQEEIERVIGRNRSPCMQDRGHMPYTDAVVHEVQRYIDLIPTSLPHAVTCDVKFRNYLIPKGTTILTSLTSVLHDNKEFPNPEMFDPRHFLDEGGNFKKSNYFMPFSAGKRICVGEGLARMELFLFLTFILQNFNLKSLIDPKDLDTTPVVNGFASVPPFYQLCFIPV
Sequence of human kappa opioid receptor (P41145 whole entry): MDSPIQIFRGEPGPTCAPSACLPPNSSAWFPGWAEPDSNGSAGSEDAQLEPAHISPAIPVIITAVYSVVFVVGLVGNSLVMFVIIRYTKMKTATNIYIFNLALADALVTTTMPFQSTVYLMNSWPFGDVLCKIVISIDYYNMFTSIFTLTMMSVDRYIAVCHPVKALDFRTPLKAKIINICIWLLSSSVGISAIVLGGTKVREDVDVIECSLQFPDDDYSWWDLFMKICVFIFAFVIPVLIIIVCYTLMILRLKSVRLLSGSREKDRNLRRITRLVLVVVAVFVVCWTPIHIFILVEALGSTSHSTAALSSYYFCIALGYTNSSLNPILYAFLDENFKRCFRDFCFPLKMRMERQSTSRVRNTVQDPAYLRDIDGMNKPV

On to `CO/N=C(\CCC(=O)O)c1nc2ccccc2n([C@H]2C[C@H]3CCC[C@@H](C2)N3C2CCCCCCCC2)c1=O` [Compound 10, 4-[4-((1R,3R,7S)-9-cyclononyl-9-aza-bicyclo[3.3.1]non-3-yl)-3-oxo-3,4-dihydro-quinoxalin-2-yl]-4-methoxyimino-butyric acid], for which the IC50 in test [1], in test [3], in test [4], in [5] and in test [6] was over 20 µM each time. Further, a half-maximal effect in [2] (EC50) was put at 0.104 ± 0.012 µM.

As to `CON=C(CCC(=O)O)c1nc2ccccc2n([C@H]2C[C@H]3CC[C@@H](C2)N3C2CC3CCCC(C3)C2)c1=O` (stereo partly drawn) [Compound 14, 4-(4-((1R,3R)-8-(bicyclo[3.3.1]nonan-3-yl)-8-azabicyclo[3.2.1]octan-3-yl)-3-oxo-3,4-dihydroquinoxalin-2-yl)-4-(methoxyimino)butanoic acid], the IC50 in test [1], in [3], in test [4], in [5] and in test [6] was over 20 µM each time. Also, the inhibitory constant (Ki) (usually the equilibrium dissociation constant of an inhibitor or competing ligand from its target) was 2.3 ± 0.153 µM in test [7], 2.76 ± 0.245 µM in [8] and over 20 µM in [9]. Also, a half-maximal response in [2] (EC50) required 0.15 ± 0.014 µM.

As to `C/C(=N\OCC(=O)O)c1nc2ccccc2n([C@H]2C[C@H]3CCC[C@@H](C2)N3C2CCCCCCCCC2)c1=O` [Compound 21], the IC50 in test [1], in [3], in test [4], in test [5] and in test [6] was over 20 µM each time. For the same compound, in [2], the response was half-maximal at 0.239 ± 0.0254 µM (EC50).

`NC(=O)/C(=N\OCC(=O)O)c1nc2ccccc2n([C@H]2C[C@H]3CCC[C@@H](C2)N3C2CC3CCCC(C3)C2)c1=O` (some centres unmarked) [Compound 40]: the half-maximal inhibitory concentration (IC50) in test [1], in test [3], in test [4], in test [5] and in test [6] was over 20 µM in each case. Moreover, the inhibition constant Ki in [7] was 2.71 ± 0.285 µM; in test [8], 1.7 ± 0.278 µM; in test [9], over 20 µM. Further, in test [2], the EC50 – broadly, the concentration at which the effect is half-maximal – stood at 0.113 ± 0.031 µM.

On to `CON=C(CCC(=O)O)c1nc2ccccc2n([C@H]2C[C@H]3COC[C@@H](C2)N3C2CC3CCCCC(C3)C2)c1=O` (some centres unmarked) [Compound 48], for which the half-inhibitory concentration (IC50) in test [1], in [3], in test [4], in test [5] and in test [6] was over 20 µM each time. In addition, the results for the Ki in test [7], in test [8] and in test [9] were 15.6 µM, over 20 µM and over 20 µM, respectively. The half-maximal effective concentration (EC50) in test [2] worked out at 0.149 ± 0.029 µM.

For `CN(C)C(=O)C(=NOCC(=O)O)c1nc2ccccc2n([C@H]2C[C@H]3CCC[C@@H](C2)N3C2CC3CCCC(C3)C2)c1=O` (some centres unmarked) [Compound 51], the IC50 in [1], in test [3], in test [4], in test [5] and in [6] was over 20 µM each time.

As for `CC(O/N=C(\C(=O)O)c1nc2ccccc2n([C@H]2C[C@H]3CCC[C@@H](C2)N3C2CC3CCCC(C3)C2)c1=O)C(N)=O` (some centres unmarked) [Compound 52], the half-inhibitory concentration (IC50) in test [1], in [3], in [4], in test [5] and in test [6] was over 20 µM each time.

In the case of `CC(C)C(O/N=C(\C(=O)O)c1nc2ccccc2n([C@H]2C[C@H]3CCC[C@@H](C2)N3C2CC3CCCC(C3)C2)c1=O)C(N)=O` (some centres unmarked) [Compound 53], the 50% inhibitory concentration (IC50) in test [1], in test [3], in test [4], in test [5] and in [6] was over 20 µM each time.

On to `CNC(=O)C(=NOCC(=O)O)c1nc2ccccc2n([C@H]2C[C@H]3CCC[C@@H](C2)N3C2CC3CCCCC(C3)C2)c1=O` (some centres unmarked) [Compound 54], for which the IC50 in test [1], in test [3], in test [4], in test [5] and in test [6] was over 20 µM throughout.

For `NC(=O)C(=NOCC(=O)O)c1nc2ccccc2n([C@H]2C[C@H]3CCC[C@@H](C2)N3C2CC3CCCCC(C3)C2)c1=O` (some centres unmarked) [Compound 55], the IC50 in test [1], in test [3], in test [4], in test [5] and in test [6] was over 20 µM each time.

As to `COCCO/N=C(\CCC(=O)O)c1nc2ccccc2n([C@H]2C[C@H]3CCC[C@@H](C2)N3C2CC3CCCCC(C3)C2)c1=O` (some centres unmarked) [Compound 56], the IC50 in test [1], in test [3], in test [4], in test [5] and in test [6] was over 20 µM throughout.

For `CC(C)(ON=C(C(N)=O)c1nc2ccccc2n([C@H]2C[C@H]3CCC[C@@H](C2)N3C2CC3CCCC(C3)C2)c1=O)C(=O)O` (some centres unmarked) [Compound 57], the half-inhibitory concentration (IC50) in [1], in test [3], in test [4], in test [5] and in [6] was over 20 µM in each case.

As to `CNC(=O)CCC(=NOCC(=O)O)c1nc2ccccc2n([C@H]2C[C@H]3CCC[C@@H](C2)N3C2CC3CCCCC(C3)C2)c1=O` (some centres unmarked) [Compound 58], the IC50 in test [1], in test [3], in test [4], in test [5] and in [6] was over 20 µM throughout.

For `NC(=O)CCC(=NOCC(=O)O)c1nc2ccccc2n([C@H]2C[C@H]3CCC[C@@H](C2)N3C2CC3CCCCC(C3)C2)c1=O` (some centres unmarked) [Compound 59], the IC50 in test [1], in test [3], in [4], in test [5] and in [6] was over 20 µM in each case.

`NC(=O)CO/N=C(\C(=O)O)c1nc2ccccc2n([C@H]2C[C@H]3CC[C@@H](C2)N3C2CC3CCCCC(C3)C2)c1=O` (some centres unmarked) [Compound 60]: the IC50 in test [1], in [3], in test [4], in test [5] and in test [6] was over 20 µM throughout.

As for `CC(C)(O/N=C(\C(=O)O)c1nc2ccccc2n([C@H]2C[C@H]3CC[C@@H](C2)N3C2CC3CCCCC(C3)C2)c1=O)C(N)=O` (some centres unmarked) [Compound 61], the IC50 in test [1], in [3], in test [4], in [5] and in test [6] was over 20 µM in each case.

On to `CN(C)C(=O)CON=C(C(=O)O)c1nc2ccccc2n([C@H]2C[C@H]3CCC[C@@H](C2)N3C2CC3CCCC(C3)C2)c1=O` (some centres unmarked) [Compound 63], for which the half-maximal inhibitory concentration (IC50) in [1], in test [3], in [4], in [5] and in test [6] was over 20 µM each time.

For `CNC(=O)CON=C(C(=O)O)c1nc2ccccc2n([C@H]2C[C@H]3CCC[C@@H](C2)N3C2CC3CCCC(C3)C2)c1=O` (some centres unmarked) [Compound 64], the IC50 in test [1], in test [3], in test [4], in test [5] and in test [6] was over 20 µM throughout.

With `N#CC(=NOCC(=O)O)c1nc2ccccc2n([C@H]2C[C@H]3CCC[C@@H](C2)N3C2CC3CCCC(C3)C2)c1=O` (stereo partly drawn) [Compound 65, 2-((((4-((1R,1′R,3r,3′R,5S,5′S)-[3,9′-bi(9′-azabicyclo[3.3.1]nonan)]-3′-yl)-3-oxo-3,4-dihydroquinoxalin-2-yl)(cyano)methylene)amino)oxy)acetic acid], the half-maximal inhibitory concentration (IC50) in [1], in test [3], in test [4], in [5] and in test [6] was over 20 µM each time.

Regarding `NC(=O)CO/N=C(\C(N)=O)c1nc2ccccc2n([C@H]2C[C@H]3CCC[C@@H](C2)N3C2CC3CCCCC(C3)C2)c1=O` (some centres unmarked) [Compound 66], the IC50 in test [1], in test [3], in [4], in [5] and in test [6] was over 20 µM throughout.

In the case of `CC(C)ON=C(CCC(=O)O)c1nc2ccccc2n([C@H]2C[C@H]3CC[C@@H](C2)N3C2CC3CCCCC(C3)C2)c1=O` (some centres unmarked) [Compound 67], the IC50 in [1], in test [3], in [4], in test [5] and in test [6] was over 20 µM each time.
